# How the values were obtained:
# BRD4 (BDI_K57-E168) = molecular target: T1, BRD4 (BDI_K57-E168) (Homo sapiens, UniProt O60885); assay: TR-FRET bromodomain binding assay, BRD4 first bromodomain; details: His-tagged BD1, 100 nM Alexa647 probe; assay protocol D or F as given per row in c1; Ki calculated from IC50
# T1 construct: BD1: amino acids K57-E168; made in house
# Protocol: (§1) A time-resolved fluorescence resonance energy transfer (TR-FRET) assay was used to determine the affinities of compounds of the Examples listed in Table 1 for each bromodomain of BRD4. His-tagged first (BD1: amino acids K57-E168) and second (BD2: amino acids E352-E168) bromodomains of BRD4 were expressed and purified. An Alexa647-labeled BET-inhibitor was used as the fluorescent probe in the assay.
# (§2) Compound dilution series were prepared in DMSO via an approximately 3-fold serial dilution from one of the following:
# (§3) Assay method D: 500 μM-8.5 nM
# (§4) Assay method E: 0.47 mM to 7.8 nM
# (§5) Assay method F: 250 μM-4.2 nM
# (§6) Assay method G: 0.047 mM to 0.78 nM
# (§7) or 5-fold serial dilution from one of the following:
# (§8) Assay method A: 2.5 mM-800 nM
# (§9) Assay method B: 2.5 mM-797 nM
# (§10) For Assay methods A, C, D, and F: Compounds were then diluted 6:100 in assay buffer (20 mM Sodium Phosphate, pH 6.0, 50 mM NaCl, 1 mM Ethylenediaminetetraacetic acid, 0.01% Triton X-100, 1 mM DL-Dithiothreitol) to yield 3× working solutions. Six microliters (μL) of the working solution was then transferred to white, low-volume assay plates (Costar #3673). A 1.5× assay mixture containing His-tagged bromodomain, Europium-conjugated anti-His antibody (Invitrogen PV5596) and the Alexa-647-conjugated probe molecule was also prepared. Twelve μL of this solution were added to the assay plate to reach a final volume of 18 μL.
# (§11) For Assay methods B, E, and G: Compound dilutions were added directly into white, low-volume assay plates (Perkin Elmer Proxiplate 384 Plus#6008280) using a Labcyte Echo in conjunction with Labcyte Access and Thermo Multidrop CombinL robotics. Compounds were then suspended in eight microliters (μL) of assay buffer (20 mM Sodium Phosphate, pH 6.0, 50 mM NaCl, 1 mM Ethylenediaminetetraacetic acid disodium salt dihydrate, 0.01% Triton X-100, 1 mM DL-Dithiothreitol) containing His-tagged bromodomain, Europium-conjugated anti-His antibody (Invitrogen PV5596) and Alexa-647-conjugated probe.
# (§12) The final concentration of 1× assay mixture for assay methods A, B, C, D, E, F, and G contains 2% DMSO, 8 nM His-tagged bromodomain, 1 nM Europium-conjugated anti-His-tag antibody and 100 nM or 30 nM probe (for BDI or BDII, respectively) and compound concentration in the range of: 50 μM-16 nM for method A, 49.02 μM-15.63 nM for method B, 25 μM-423 pM for method C, 10 μM-169 pM for method D, 9.19 μM 150 pM for method E, 5 μM-85 pM for method F, and 0.92 μM-15 pM for method G.
# (§13) After a one-hour equilibration at room temperature, TR-FRET ratios were determined using an Envision multilabel plate reader (Ex 340, Em 495/520).
# (§14) TR-FRET data were normalized to the means of 24 no-compound controls (“high”) and 8 controls containing 1 μM un-labeled probe (“low”). Percent inhibition was plotted as a function of compound concentration and the data were fit with the 4 parameter logistic equation to obtain IC50s Inhibition constants (Ki) were calculated from the IC50s, probe Kd and probe concentration. Typical Z′ values were between 0.65 and 0.75. The minimum significant ratio was determined to evaluate assay reproducibility (Eastwood et al., (2006) J Biomol Screen, 11: 253-261). The MSR was determined to be 2.03 for BDI and 1.93 for BDII, and a moving MSR (last six run MSR overtime) for both BDI and BDII was typically <3.
# [1] = test system: breast cancer cell line MX-1; assay: MX-1 cell line proliferation assay; format: cell-based; details: Homo sapiens, MX1; MX-1 cells, 3-day (72 h) proliferation, Cell Titer Glo; read-out: Cellular proliferation: EC50
# Protocol: MX-1 Cell Line Proliferation Assay
# The impact of compounds of the Examples on cancer cell proliferation was determined using the breast cancer cell line MX-1 (ATCC) in a 3-day proliferation assay and the data are reported in Table 1. MX-1 cells were maintained in RPMI 1640 medium (Sigma) supplemented with 10% FBS at 37 C.° and an atmosphere of 5% CO2. For compound testing, MX-1 cells were plated in 96-well black bottom plates at a density of 5000 cells/well in 90 μL of culture media and incubated at 37° overnight to allow cell adhesion and spreading. Compound dilution series were prepared in DMSO via a 3-fold serial dilution from 3 mM to 0.1 μM. The DMSO dilution series were then diluted 1:100 in phosphate buffered saline, and 10 μL of the resulted solution were added to the appropriate wells of the MX-1 cell plate. The final compound concentrations in the wells were 3, 1, 0.3, 0.1, 0.03, 0.01, 0.003, 0.001, 0.0003 and 0.0001 μM.
# Luminescence readings from the Cell Titer Glo assay were normalized to the DMSO treated cells and analyzed using the GraphPad Prism software with sigmoidal curve fitting to obtain EC50s. The minimum significant ratio (MSR) was determined to evaluate assay reproducibility (Eastwood et al., (2006) J Biomol Screen, 11: 253-261). The overall MSR was determined to be 2.1 and a moving MSR (last six run MSR overtime) has been <2.
# BRD4 (BDII_E352-M457) = molecular target: T2, BRD4 (BDII_E352-M457) (Homo sapiens, UniProt O60885); assay: TR-FRET bromodomain binding assay, BRD4 second bromodomain
# T2 construct: protocol; made in house
# Protocol: as §1, §2, §3, §4, §5, §6, §7, §8, §9, §10, §11, §12, §13, §14
Compound,Ki (BRD4 (BDI_K57-E168)),EC50 [1],Ki (BRD4 (BDII_E352-M457))
Cn1cc2c3c(c[nH]c(=O)c31)CNc1ccc(S(C)(=O)=O)cc1-2 [Example 1],1350 nM,> 3000 nM,2820 nM
Cn1cc2c3c(c[nH]c(=O)c31)CN(CC1CC1)c1ccc(S(C)(=O)=O)cc1-2 [Example 2],21 nM,144 nM,430 nM
Cn1cc2c3c(c[nH]c(=O)c31)CN(C(=O)C1CC1)c1ccc(CS(C)(=O)=O)cc1-2 [Example 6],3.53 nM,16.4 nM,2.44 nM
Cn1cc2c3c(c[nH]c(=O)c31)CN(C(=O)c1ccccc1)c1ccc(CS(C)(=O)=O)cc1-2 [Example 7],59.1 nM,273 nM,97.5 nM
COCCC1c2c[nH]c(=O)c3c2c(cn3C)-c2cc(CS(C)(=O)=O)ccc2N1c1ccc(F)cc1 (stereo not drawn) [Example 8],5.81 nM,46.6 nM,25.2 nM
COC(=O)CCC1c2c[nH]c(=O)c3c2c(cn3C)-c2cc(CS(C)(=O)=O)ccc2N1c1ccc(F)cc1 (stereo not drawn) [Example 9],6.29 nM,805 nM,18.2 nM
Cn1cc2c3c(c[nH]c(=O)c31)C(CC1CCOCC1)N(c1ccc(F)cc1)c1ccc(CS(C)(=O)=O)cc1-2 (stereo not drawn) [Example 10],8.23 nM,81.6 nM,57.4 nM
Cn1cc2c3c(c[nH]c(=O)c31)CN(CC1CC1)c1ccccc1-2 [Example 11],7.14 nM,56.8 nM,18.9 nM
CCS(=O)(=O)Nc1ccc2c(c1)-c1cn(C)c3c(=O)[nH]cc(c13)CN2c1ccc(F)cc1 [Example 12],2.18 nM,5.63 nM,4.3 nM
Cn1cc2c3c(c[nH]c(=O)c31)CN(c1ccc(F)cc1)c1ccc(Cl)cc1-2 [Example 13],2.74 nM,72 nM,34.1 nM
Cn1cc2c3c(c[nH]c(=O)c31)CN(c1ccc(F)cc1)c1ncc(N)cc1-2 [Example 14],3 nM,2.78 nM,3.69 nM
CCOC(=O)C1c2c[nH]c(=O)c3c2c(cn3C)-c2cc(CS(C)(=O)=O)ccc2N1c1ccc(F)cc1 (stereo not drawn) [Example 15],9.14 nM,36.3 nM,26.9 nM
Cn1cc2c3c(c[nH]c(=O)c31)CN(c1ccc(F)cc1)c1ncc(F)cc1-2 [Example 16],0.79 nM,5.55 nM,5.07 nM
Cn1cc2c3c(c[nH]c(=O)c31)CN(c1ccc(F)cc1)c1ncc(NC(=O)Cc3cc(F)ccc3Cl)cc1-2 [Example 17],1.43 nM,19.9 nM,2.48 nM
Cc1cc(CC(=O)Nc2cnc3c(c2)-c2cn(C)c4c(=O)[nH]cc(c24)CN3c2ccc(F)cc2)nn1C [Example 18],1.82 nM,7.02 nM,3.46 nM
Cn1cc2c3c(c[nH]c(=O)c31)CN(c1ccc(F)cc1)c1ncc(NC(=O)Cn3ccc(-c4ccccc4F)n3)cc1-2 [Example 19],1.32 nM,68.7 nM,11.6 nM

Compound,Ki (BRD4 (BDI_K57-E168)),EC50 [1],Ki (BRD4 (BDII_E352-M457))
Cn1cc2c3c(c[nH]c(=O)c31)C(c1ccccc1)N(c1ccc(F)cc1)c1ccc(Cl)cc1-2 (stereo not drawn) [Example 24],178 nM,–,> 408 nM
Cn1cc2c3c(c[nH]c(=O)c31)CN(c1ccc(F)cc1)c1ccc(NC(=O)Cc3ccc(Cl)cc3F)cc1-2 [Example 29],3.03 nM,–,22.4 nM
Cn1cc2c3c(c[nH]c(=O)c31)CN(c1ccc(F)cc1)c1ccc(NC(=O)Cn3ccc(-c4ccccc4F)n3)cc1-2 [Example 31],11.5 nM,–,79.5 nM
COc1cccc(NC(=O)Nc2ccc3c(c2)-c2cn(C)c4c(=O)[nH]cc(c24)CN3c2ccc(F)cc2)c1 [Example 45],7.12 nM,–,130 nM
Cn1cc2c3c(c[nH]c(=O)c31)CN(c1ccc(F)cc1)c1ccc(NC(=O)Cc3ccc4c(c3)CCCO4)cc1-2 [Example 46],3.29 nM,–,19.7 nM
Cn1cc2c3c(c[nH]c(=O)c31)CN(c1ccc(F)cc1)c1ccc(NC(=O)Cc3cc(F)ccc3C(F)(F)F)cc1-2 [Example 51],5.12 nM,–,84.8 nM
Cc1ccc(C)c(CC(=O)Nc2ccc3c(c2)-c2cn(C)c4c(=O)[nH]cc(c24)CN3c2ccc(F)cc2)c1 [Example 53],2.61 nM,–,50.1 nM
Cn1cc2c3c(c[nH]c(=O)c31)CN(c1ccc(F)cc1)c1ccc(NC(=O)Cc3ccccc3)cc1-2 [Example 54],2.07 nM,–,17.9 nM
Cn1cc2c3c(c[nH]c(=O)c31)CN(c1ccc(F)cc1)c1ccc(NC(=O)Cc3cc(Cl)ccc3Oc3ccccc3)cc1-2 [Example 55],9.31 nM,–,240 nM
COc1ccc(F)cc1CNC(=O)c1ccc2c(c1)-c1cn(C)c3c(=O)[nH]cc(c13)CN2c1ccc(F)cc1 [Example 56],1.74 nM,–,57.4 nM
CC(NC(=O)c1ccc2c(c1)-c1cn(C)c3c(=O)[nH]cc(c13)CN2c1ccc(F)cc1)c1ccc(F)cc1 (stereo not drawn) [Example 59],2.89 nM,–,71.5 nM
CC(NC(=O)c1ccc2c(c1)-c1cn(C)c3c(=O)[nH]cc(c13)CN2c1ccc(F)cc1)c1ccc(Cl)cc1Cl (stereo not drawn) [Example 61],5.17 nM,–,147 nM
Cn1cc2c3c(c[nH]c(=O)c31)CN(c1ccc(F)cc1)c1ccc(C(=O)NCc3cc(F)ccc3F)cc1-2 [Example 64],1.73 nM,–,46.9 nM
Cn1cc2c3c(c[nH]c(=O)c31)CN(c1ccc(F)cc1F)c1ncc(N)cc1-2 [Example 67],21.2 nM,–,7 nM
CC(=O)N1CCC(N2Cc3c[nH]c(=O)c4c3c(cn4C)-c3cc(N)ccc32)CC1 [Example 73],7.08 nM,–,41.8 nM
